In one test the test system is THP-1 cells. The test can be described thus: Lamp1 lysosomal exocytosis assay. It counts as cell-based. The following applies: Homo sapiens, 55 min, 55 min incubation, top dose 20 μM. In a few lines:
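THP-1 cells (1e5/well) exposed to a 7-point 3-fold compound series, top final 20 μM, for 55 min at 37°C. Surface Lamp1 then stained with Lamp1-PE on ice in buffer containing 80 μM Dynasore, and read by flow cytometry as PE geometric mean on live, sytox-negative singlets.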

In the next test the test system is TFEB. The test can be described thus: TFEB nuclear translocation assay. It counts as cell-based. The following applies: Homo sapiens; HeLa wt or HeLa TRPML1 KO cells, treated for 2 hrs; ratio of nuclear to ring-region TFEB intensity. In a few lines: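 HeLa wild-type or TRPML1 KO cells treated 2 h with compound at 37 °C, PFA-fixed, immunostained for TFEB (Alexa 488) with Hoechst nuclei. Imaged at ×20, four fields/well. Value is ratio of nuclear to perinuclear-ring TFEB intensity, with nuclei counts.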

As a reminder, the EC50 is the midpoint of the concentration-response curve.

In the case of `COc1ccc(NC(=O)N2CCC3(CC2)CN(S(=O)(=O)c2ccc(C(F)F)cc2)c2ccccc23)cc1OC` [Compound I-226, 1-((4-(difluoromethyl)phenyl)sulfonyl)-N-(3,4-dimethoxyphenyl)spiro[indoline-3,4′-piperidine]-1′-carboxamide], the EC50 in the test with THP-1 cells is ≥ 5.01 µM; in the test with TFEB, ≥ 10 µM.
The like results for `COc1ccc(NC(=O)N2CCC3(CC2)CN(S(=O)(=O)c2ccc(C(F)F)cc2)c2ccccc23)c(OC)c1` [Compound I-227, 1-((4-(difluoromethyl)phenyl)sulfonyl)-N-(2,4-dimethoxyphenyl)spiro[indoline-3,4′-piperidine]-1′-carboxamide] were, in that order, ≥ 5.01 µM and 2.01 to 8 µM.
As to `COc1cccc(NC(=O)N2CCC3(CC2)CN(S(=O)(=O)c2ccc(C(F)F)cc2)c2ccccc23)c1OC` [Compound I-228, 1-((4-(difluoromethyl)phenyl)sulfonyl)-N-(2,3-dimethoxyphenyl)spiro[indoline-3,4′-piperidine]-1′-carboxamide], the EC50 with THP-1 cells was ≥ 5.01 µM; in the test with TFEB, ≤ 2 µM.
Taken in the same sequence, the figures for `O=C(Nc1ccccc1)C1CCC2(CC1)CN(S(=O)(=O)c1ccc(C(F)F)cc1)c1ccccc12` (stereo not shown) [Compound I-230, 1′-((4-(difluoromethyl)phenyl)sulfonyl)-N-phenylspiro[cyclohexane-1,3′-indoline]-4-carboxamide] were ≥ 5.01 µM and ≤ 2 µM.
`CN(C(=O)C1CCC2(CC1)CN(S(=O)(=O)c1ccc(C(F)F)cc1)c1ccccc12)c1ccccc1` (stereo not shown) [Compound I-234, 1′-((4-(difluoromethyl)phenyl)sulfonyl)-N-methyl-N-phenylspiro[cyclohexane-1,3′-indoline]-4-carboxamide]: the EC50 was ≥ 5.01 µM in the test with THP-1 cells and ≤ 2 µM in the test with TFEB.
Taken in the same sequence, the figures for `CN(Cc1ccccc1)C(=O)C1CCC2(CC1)CN(S(=O)(=O)c1ccc(C(F)F)cc1)c1ccccc12` (stereo not shown) [Compound I-235, N-benzyl-1′-((4-(difluoromethyl)phenyl)sulfonyl)-N-methylspiro[cyclohexane-1,3′-indoline]-4-carboxamide] were ≥ 5.01 µM and ≤ 2 µM.
`O=C(OCc1ccccc1)N1CCC2(CC1)CN(C(=O)Cc1ccc(C(F)F)cc1)c1ccccc12` [Compound I-246, benzyl 1-(2-(4-(difluoromethyl)phenyl)acetyl)spiro[indoline-3,4′-piperidine]-1′-carboxylate]: the values for the EC50 with THP-1 cells and in the test with TFEB were ≥ 5.01 µM and ≥ 10 µM, respectively.
In the case of `O=C(OCc1ccccc1)N1CCC2(CC1)CN(C(=O)Nc1ccc(C(F)F)cc1)c1ccccc12` [Compound I-247, benzyl 1-((4-(difluoromethyl)phenyl)carbamoyl)spiro[indoline-3,4′-piperidine]-1′-carboxylate], the EC50 in the test with THP-1 cells is ≥ 5.01 µM; in the test on TFEB it was ≥ 10 µM.
The like results for `CN(C(=O)N1CC2(CCN(C(=O)OCc3ccccc3)CC2)c2ccccc21)c1ccc(C(F)F)cc1` [Compound I-248, benzyl 1-((4-(difluoromethyl)phenyl)(methyl)carbamoyl)spiro[indoline-3,4′-piperidine]-1′-carboxylate] were, in that order, ≥ 5.01 µM and ≥ 10 µM.
With `O=C(OCc1ccccc1)N1CCC2(CC1)CN(C(=O)Oc1ccc(C(F)F)cc1)c1ccccc12` [Compound I-249, 1′-benzyl 1-(4-(difluoromethyl)phenyl) spiro[indoline-3,4′-piperidine]-1,1′-dicarboxylate], the 50% effective concentration (EC50) was ≥ 5.01 µM in the test with THP-1 cells and ≥ 10 µM in the test on TFEB.
Taken in the same sequence, the figures for `O=C(OCc1ccccc1)N1CCC2(CC1)CN(S(=O)(=O)Cc1ccc(C(F)F)cc1)c1ccccc12` [Compound I-250, benzyl 1-((4-(difluoromethyl)benzyl)sulfonyl)spiro[indoline-3,4′-piperidine]-1′-carboxylate] were ≤ 0.5 µM and ≤ 2 µM.

The record behind these values is patent publication US20230416262A1, “TRPML MODULATORS” (Casma Therapeutics, Inc., priority 2020, published 2023).
